Assay type in all cases: functional
One test deals with COLO 205. The experiment in a line: Cytotoxicity against human COLO205 cells assessed as age growth inhibition at 20 uM after 48 hrs by sulforhodamine B assay. The note with it: COLO 205, 48 h, read-out: GI.
A further test concerns IGROV-1. The experiment in a line: Cytotoxicity against human IGROV1 cells assessed as age growth inhibition at 20 uM after 48 hrs by sulforhodamine B assay. The note with it: IGROV-1, 48 h, read-out: GI.
A further test has as its system SK-OV-3. The test can be described thus: Cytotoxicity against human SKOV3 cells assessed as age growth inhibition at 20 uM after 48 hrs by sulforhodamine B assay. The note with it: SK-OV-3, 48 h, read-out: GI. On the technique in general: In SRB staining, fixed cells bind dye roughly in proportion to their protein.
The subject of the next test is DU-145. The test can be described thus: Cytotoxicity against human DU145 cells assessed as age growth inhibition at 20 uM after 48 hrs by sulforhodamine B assay. The note with it: DU-145, 48 h, read-out: GI.
The subject of another test is HEp-2. The experiment in a line: Cytotoxicity against human HEP2 cells assessed as age growth inhibition at 20 uM after 48 hrs by sulforhodamine B assay. The note with it: HEp-2, 48 h, read-out: GI.
A further test relates to SF-295. The experiment in a line: Cytotoxicity against human SF295 cells assessed as age growth inhibition at 20 uM after 48 hrs by sulforhodamine B assay. The note with it: SF-295, 48 h, read-out: GI.
In the next test the test system is A549. The experiment in a line: Cytotoxicity against human A549 cells assessed as age growth inhibition at 20 uM after 48 hrs by sulforhodamine B assay. The note with it: A549, 48 h, read-out: GI.
Another test deals with HOP-62. The experiment in a line: Cytotoxicity against human HOP62 cells assessed as age growth inhibition at 20 uM after 48 hrs by sulforhodamine B assay. The note with it: HOP-62, 48 h, read-out: GI.
Another test has as its system HCT-15. The test can be described thus: Cytotoxicity against human HCT15 cells assessed as age growth inhibition at 20 uM after 48 hrs by sulforhodamine B assay. The note with it: HCT-15, 48 h, read-out: GI.

`O=c1[nH]cc(F)c(=O)[nH]1` [FLUOROURACIL]: the inhibition of growth at 20 µM with COLO 205 was found to be 27%; in the test on IGROV-1 it was 29%; with SK-OV-3, 46%; in the test on DU-145, 29%; in the test with HEp-2, 77%; in the test on SF-295 it was 11%. Moreover, the inhibition of growth at 20 µM was 57% in the test with A549, 37% with HOP-62 and 30% in the test with HCT-15.

The values above are taken from ChEMBL document CHEMBL1140040, “Synthesis and cytotoxic activity of some novel polycyclic gamma-butyrolactones” (Bioorg Med Chem Lett, 2008).
